IC50 data for 1 molecule are collected here from patent publication US20260217661A1, “TREATMENTS FOR PAIN” (Sevenless Therapeutics Limited, priority 2023, published 2026).

As usually defined, the IC50 is the concentration that gives 50% inhibition. A high value points to lower potency.

In this assay the target is T1, KRAS WT/SOS1 (Homo sapiens, UniProt Q07889).
T1 sequence (Q07889 1-1333): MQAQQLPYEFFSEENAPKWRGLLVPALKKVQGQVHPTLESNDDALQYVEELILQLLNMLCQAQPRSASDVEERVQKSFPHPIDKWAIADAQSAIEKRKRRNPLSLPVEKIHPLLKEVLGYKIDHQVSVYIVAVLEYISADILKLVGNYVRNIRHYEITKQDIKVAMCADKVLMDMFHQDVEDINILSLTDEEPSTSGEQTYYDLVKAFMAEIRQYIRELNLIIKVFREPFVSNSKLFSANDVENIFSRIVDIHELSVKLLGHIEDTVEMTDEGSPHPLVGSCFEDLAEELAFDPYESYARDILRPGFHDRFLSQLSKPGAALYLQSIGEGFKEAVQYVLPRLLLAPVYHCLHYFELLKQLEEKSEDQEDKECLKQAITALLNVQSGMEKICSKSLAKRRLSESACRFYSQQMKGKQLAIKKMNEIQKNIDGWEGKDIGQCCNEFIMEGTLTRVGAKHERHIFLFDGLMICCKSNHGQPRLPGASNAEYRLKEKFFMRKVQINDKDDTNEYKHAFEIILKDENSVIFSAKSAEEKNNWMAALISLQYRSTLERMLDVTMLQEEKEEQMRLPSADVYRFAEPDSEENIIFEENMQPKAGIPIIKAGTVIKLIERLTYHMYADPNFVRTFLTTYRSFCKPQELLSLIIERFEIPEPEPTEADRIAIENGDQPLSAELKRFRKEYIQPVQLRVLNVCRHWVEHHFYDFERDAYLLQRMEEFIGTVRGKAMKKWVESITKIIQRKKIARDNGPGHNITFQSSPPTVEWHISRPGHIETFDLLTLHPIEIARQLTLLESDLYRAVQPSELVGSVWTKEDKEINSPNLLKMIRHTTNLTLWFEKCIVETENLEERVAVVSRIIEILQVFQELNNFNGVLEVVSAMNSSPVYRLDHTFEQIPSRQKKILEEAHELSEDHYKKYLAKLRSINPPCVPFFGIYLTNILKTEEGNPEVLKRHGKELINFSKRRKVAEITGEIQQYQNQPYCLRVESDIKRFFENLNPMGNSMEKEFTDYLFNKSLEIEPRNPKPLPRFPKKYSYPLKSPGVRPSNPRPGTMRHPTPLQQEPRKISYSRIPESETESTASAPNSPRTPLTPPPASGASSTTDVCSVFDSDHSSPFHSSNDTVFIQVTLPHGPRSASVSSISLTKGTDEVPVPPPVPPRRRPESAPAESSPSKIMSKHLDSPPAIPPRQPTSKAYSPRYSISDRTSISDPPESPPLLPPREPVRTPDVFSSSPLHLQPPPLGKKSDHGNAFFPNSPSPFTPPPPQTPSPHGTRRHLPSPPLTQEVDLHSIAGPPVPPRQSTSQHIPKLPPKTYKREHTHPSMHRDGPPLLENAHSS
Briefly: HTRF KRAS WT/SOS1 PPI kit (Cisbio) screen for SOS1 inhibitors. The class given is binding. The note with it: HTRF KRAS WT/SOS1 PPI assay, 10-point dilution series starting at 10 μM, 60 minutes incubation. On the procedure: Compounds were screened using an HTRF KRAS WT/SOS1 PPI kit provided by Cis bio, according to the manufacturer's instructions, with the modifications described below. All reagents were allowed to equilibrate to room temperature and diluted to working stock in Binding Domain Detection buffer (BDD buffer). Stock solutions were prepared by adding 1 part Tag1-KRAS WT/GTP to 1 part Tag2-SOS1 and 1 part BDD. Separately, 1 part Anti-Tag1 XL665 antibody premix was added to Anti-Tag2 Tb cryptate antibody premix. BI-3406 (Selleck Chemicals) was used as a standard, solubilised to 10 mM in DMSO. Test compounds were also solubilised to 10 mM in DMSO. […] Per well, 6 uL of Tag1-KRAS WT/GTP premix, 4 ul Tag2-SOS1 premix and 10 μl of Anti-Tag1 XL665 and Anti-Tag2 Tb cryptate antibodies were then added using a E1-ClipTip™ Electronic Adjustable Multichannel Equalizer Pipette. After the final addition, the plate was covered and placed in the benchtop incubator set at 22° C. The reaction was incubated for 60 minutes at room temperature, prior to reading using a Pherastar FSX plate reader.
On the technique in general: TR-FRET usually uses a lanthanide donor and a delayed reading to cut background.

`COc1cc2nncc(N[C@H](C)c3cccc(C(F)F)c3F)c2cc1N1CC2CC(C1)O2` [Example-8, 6-(6-oxa-3-azabicyclo [3.1.1]heptan-3-yl)-N—((R)-1-(3-(difluoromethyl)-2-fluorophenyl)ethyl)-7-methoxycinnolin-4-amine] came in with an IC50 below 100 nM.
